Measured values from US20240400584A1, “COMPOUNDS AND METHODS FOR MODULATING SPLICING” (REMIX THERAPEUTICS INC., priority 2021, published 2024).
Like-named read-outs stand apart in the source and are kept apart here.

What was measured:
HTT [1] = experiment: RT-qPCR splicing assay, HTT AJ/CJ mRNA; assay type: cell-based, human; details: A673 or K562 cells; for IC50: decrease in canonical junction mRNA; for AC50: increase in alternative junction mRNA
Description: (§1) Compounds described herein were used to modulate RNA transcript abundance in cells. The expression of a target mRNA was measured by detecting the formation of an exon-exon junction in the canonical transcript (CJ). A compound mediated exon-inclusion event was detected by observing an increase in formation OF A new junction with an alternative exon (AJ). Real-time qPCR assays were used to detect these splicing switches and interrogate the potency of various compounds towards different target Genes. A high-throughput real time quantitative PCR (RT-qPCR) assay was developed to measure these two isoforms of the mRNA (CJ and AJ) for exemplary genes, such as HTT, SMN2, and MYB, together with a control housekeeping gene, GAPDH or GUSB or PPIA, used for normalization. Briefly, the A673 or K562 cell line was treated with various compounds described herein (e.g., compounds of Formula (i)). After treatment, the levels of the HTT, MYB, or SMN2 mRNA targets were determined from each sample of cell lysate by cDNA synthesis followed by qPCR.
(§2) The A673 cell line was cultured in DMEM with 10% FBS. Cells were diluted with full growth media and plated in a 96-well plate (15,000 cells in 100 ul media per well). The plate was incubated at 37° C. with 5% CO2 for 24 hours to allow cells to adhere. An 11-point 3-fold serial dilution of the compounds was made in DMSO then diluted in media in an intermediate plate. Compounds were transferred from the intermediate plate to the cell plate with the top dose at a final concentration of 10 uM in the well. Final DMSO concentration was kept at or below 0.25%. The cell plate was returned to the incubator at 37° C. with 5% CO2 for an additional 24 hours.
(§3) The K562 cell line was cultured in IMDM with 10% FBS. For K562, cells were diluted with full growth media and plated in either a 96-well plate (50,000 cells in 50 uL media per well) or a 384-well plate (8,000-40,000 cells in 45 uL media per well). An 11-point 3-fold serial dilution of the compounds were made in DMSO then diluted in media in an intermediate plate. Compound was transferred from the intermediate plate to the cell plate with the top dose at a final concentration of 10 uM in the well. Final DMSO concentration was kept at or below 0.25%. Final volume was 100 uL for 96-well plate and 50 uL for 384-well plate. The cell plate was then placed in an incubator at 37° C. with 5% CO2 for 24 hours.
(§4) The cells were then gently washed with 50 uL-100 uL Cold Pbs before proceeding to addition of lysis buffer. 30 uL-50 μL of room temperature lysis buffer with DNAse I (and optionally RNAsin) was added to each well. Cells were shaken/mixed thoroughly at room temperature for 5-10 minutes for lysis to take place and then 3 uL-5 μL of room temperature stop solution was added and wells were shaken/mixed again. After 2-5 minutes, the cell lysate plate was transferred to ice for RT-qPCR reaction setup. The lysates could also be frozen at −80° C. for later use.
(§5) In some cases, a direct lysis buffer was used. an appropriate volume of 3× lysis buffer (10 mM tRis, 150 mM NaCl, 1.5%-2.5% Igepal and 0.1-1 U/uL RNAsin, pH 7.4) was directly added to either K562 or A673 cells in media and mixed by pipetting 3 times. The plates were then incubated at room temperature with shaking/rocking for 20-50 minutes to allow for lysis to take place. After this time, the cell lysate plate was transferred to ice to set up for the RT-qPCR reactions. The lysates could also be frozen at −80° C. for later use.
(§6) To set up 10 uL RT-QpcR reactions, cell lysates were transferred to 384-well qPCR plates containing the master mix according to the table below. The plates were sealed, gently vortexed, and spun down before the run. The volumes were adjusted accordingly in some instances where the reaction was carried in 20 µL. The table below summarizes the components of the RT-qPCR reactions:
(§7) The RT-qPCR reaction was performed using a QuantStudio (ThermoFisher) under the following fast cycling conditions. […]

MYB [2] = experiment: Gene panel canonical junction qPCR assay, MYB CJ mRNA (Table 7); assay type: cell-based; details: Homo sapiens, read-out: MYB CJ mRNA decrease IC50
Description: as §1
(§8) The data analysis was performed by first determining the ΔCt vs the housekeeper gene. This ΔCt was then normalized against the DMSO control (ΔΔCt) and converted to RQ (relative quantification) using the 2^(−ΔΔCt) equation. The RQ were then converted to a percentage response by arbitrarily setting an assay window of 3.5 and 4.0 ΔCt for HTT-CJ and MYB-CJ respectively and an assay window of 9 and 3 ΔCt for HTT-AJ and MYB-AJ in 96 well format (50,000 K562 cells/well and 15,000 A673 cells per well) and an assay window of 3 and 4 ΔCt for HTT-CJ and MYB-CJ respectively and an assay window of 5 and 3 ΔCt for HTT-AJ and MYB-AJ respectively in 384 well format (8,000 K562 cells/well example). […] The percentage response was then fitted to the 4 parametric logistic equation to evaluate the concentration dependence of compound treatment. The increase in AJ mRNA is reported as AC50 (compound concentration having 50% response in AJ increase) while the decrease in CJ mRNA levels is reported as IC50 (compound concentration having 50% response in CJ decrease).
(§9) Additional studies were carried out for a larger panel of genes using the protocol provided above. The junction between flanking upstream and downstream exons was used to design canonical junction qPCR assays. At least one of the forward primer, reverse primer or the CY5-labeled 5′ nuclease probe (with 3′ quencher such as ZEN/Iowa Black FQ) was designed to overlap with the exon junction to capture the CJ mRNA transcript. BLAST was used to confirm the specificity of the probeset and parameters such as melting temperature, GC content, amplicon size, and primer dimer formation are considered during their design. Data for the decrease in CJ mRNA levels for four exemplary genes (HTT, SMN2, MYB, and Target C) analyzed in this panel are reported as IC50 (compound concentration having 50% response in CJ decrease).

MYB [3] = experiment: RT-qPCR splicing assay, MYB AJ/CJ mRNA; assay type: cell-based; details: Homo sapiens, A673 or K562 cells, 24 hours; for IC50: decrease in canonical junction mRNA; for AC50: increase in alternative junction mRNA
Description: as §1, §2, §3, §4, §5, §6, §7

SMN2 = experiment: Gene panel canonical junction qPCR assay, SMN2 CJ mRNA (Table 7); assay type: cell-based; details: Homo sapiens, read-out: SMN2 CJ mRNA decrease IC50
Description: as §1, §8, §9

Target C = experiment: Gene panel canonical junction qPCR assay, Target C CJ mRNA (Table 7); assay type: cell-based, human; details: read-out: Target C CJ mRNA decrease IC50
Description: as §1, §8, §9

HTT [4] = experiment: Gene panel canonical junction qPCR assay, HTT CJ mRNA (Table 7); assay type: cell-based, human; details: read-out: HTT CJ mRNA decrease IC50
Description: as §1, §8, §9

| Structure (SMILES) | IC50 (HTT [1]; Homo sapiens, 24 h) | IC50 (MYB [2]) | IC50 (MYB [3]) | IC50 (SMN2) | IC50 (Target C; Homo sapiens) | IC50 (HTT [4]; Homo sapiens) | AC50 (HTT [1]; Homo sapiens, 24 h) | AC50 (MYB [3]) | IC50 (HTT [1]; 24 hours) | AC50 (HTT [1]; 24 hours) | IC50 (Target C) | IC50 (HTT [4]) |
| --- | --- | --- | --- | --- | --- | --- | --- | --- | --- | --- | --- | --- |
| c1cnn(-c2ccc3c(c2)OCc2nc(N[C@@H]4C[C@H]5CC[C@@H](C4)N5)ccc2-3)c1 [Compound 135] |  | 1 to 10 µM | 1 to 10 µM | 1 to 10 µM |  |  |  | > 10 µM | 1 to 10 µM | 1 to 10 µM | 1 to 10 µM | 1 to 10 µM |
| c1cnn(-c2ccc3c(c2)OCCc2nc(N[C@@H]4C[C@H]5CC[C@@H](C4)N5)ccc2-3)c1 [Compound 136] | > 10 µM | > 10 µM | > 10 µM | > 10 µM | > 10 µM | > 10 µM | > 10 µM | > 10 µM |  |  |  |  |
| CC1(C)CC(Nc2ccc3c(n2)CCOc2cc(-n4cccn4)ccc2-3)CC(C)(C)N1 [Compound 137] | 1 to 10 µM | > 10 µM | > 10 µM | > 10 µM | 1 to 10 µM | > 10 µM | 1 to 10 µM | > 10 µM |  |  |  |  |
| c1cnn(-c2ccc3c(c2)OCCc2cc(N[C@@H]4C[C@H]5CC[C@@H](C4)N5)ccc2-3)c1 [Compound 139] | > 10 µM | > 10 µM | > 10 µM | > 10 µM | > 10 µM | > 10 µM | > 10 µM | > 10 µM |  |  |  |  |
| CN(c1ccc2c(n1)OCc1cc(-c3cnn(C)c3)ccc1-2)[C@@H]1C[C@H]2CC[C@@H](C1)N2 [Compound 150] | < 0.1 µM | 0.1 to 1 µM | 0.1 to 1 µM | > 10 µM | 0.1 to 1 µM | < 0.1 µM | < 0.1 µM | 0.1 to 1 µM |  |  |  |  |
| CN(c1ccc2c(n1)OCc1cc(-n3cc(N)cn3)ccc1-2)[C@@H]1C[C@H]2CC[C@@H](C1)N2 [Compound 172] | 0.1 to 1 µM | 0.1 to 1 µM | 0.1 to 1 µM | < 0.1 µM | 0.1 to 1 µM | 0.1 to 1 µM | 0.1 to 1 µM | 0.1 to 1 µM |  |  |  |  |

Now from value to compound, other results behind:

| IC50 (HTT [1]; Homo sapiens, 24 h) | IC50 (MYB [2]) | IC50 (MYB [3]) | IC50 (SMN2) | IC50 (Target C; Homo sapiens) | IC50 (HTT [4]; Homo sapiens) | Structure (SMILES) | AC50 (HTT [1]; Homo sapiens, 24 h) | AC50 (MYB [3]) | IC50 (HTT [1]; 24 hours) | AC50 (HTT [1]; 24 hours) | IC50 (Target C) | IC50 (HTT [4]) |
| --- | --- | --- | --- | --- | --- | --- | --- | --- | --- | --- | --- | --- |
| 1 to 10 µM | > 10 µM | > 10 µM | 0.1 to 1 µM | > 10 µM | 1 to 10 µM | Cc1cc(-c2ccc3c(c2)COc2nc(N4CC[C@@H](NC(C)(C)C)C4)ccc2-3)cnn1 (single isomer, unassigned) [Compound 274, N-tert-butyl-1-[8-(6-methylpyridazin-4-yl)-6H-isochromeno[3,4-b]379yrrolid-3-yl]379yrrolidine-3-amine] | > 10 µM | > 10 µM |  |  |  |  |
| > 10 µM | > 10 µM | > 10 µM | > 10 µM | > 10 µM | > 10 µM | c1cnn(-c2ccc3c(c2)COc2nc(N4CC5(CCNCC5)C4)ccc2-3)c1 [Compound 167] | > 10 µM | > 10 µM |  |  |  |  |
| > 10 µM | > 10 µM | > 10 µM | > 10 µM | > 10 µM | > 10 µM | c1cnn(-c2ccc3c(c2)COc2nc(N4CC5(CCCNC5)C4)ccc2-3)c1 [Compound 168] | > 10 µM | > 10 µM |  |  |  |  |
| 0.1 to 1 µM | 0.1 to 1 µM | 0.1 to 1 µM | 0.1 to 1 µM | 0.1 to 1 µM | 0.1 to 1 µM | c1cnn(-c2ccc3c(c2)COc2nc(N4CCC5(CC4)CNC5)ccc2-3)c1 [Compound 169] | 0.1 to 1 µM | 0.1 to 1 µM |  |  |  |  |
| 1 to 10 µM | > 10 µM | > 10 µM | 1 to 10 µM | > 10 µM | 1 to 10 µM | CN1C[C@@H]2CN(c3ccc4c(n3)OCc3cc(-n5cccn5)ccc3-4)C[C@@H]2C1 [Compound 170] | 1 to 10 µM | 1 to 10 µM |  |  |  |  |
| 1 to 10 µM | 1 to 10 µM | 1 to 10 µM | 0.1 to 1 µM | 1 to 10 µM | 1 to 10 µM | CC1(C)CC(Oc2ccc3c(n2)OCc2cc(-n4cccn4)ccc2-3)CC(C)(C)N1 [Compound 171] | 1 to 10 µM | 1 to 10 µM |  |  |  |  |
